In assay [1] the target is T1, TxA₂ synthase (Homo sapiens, UniProt P24557).
T1 sequence (P24557 1-533): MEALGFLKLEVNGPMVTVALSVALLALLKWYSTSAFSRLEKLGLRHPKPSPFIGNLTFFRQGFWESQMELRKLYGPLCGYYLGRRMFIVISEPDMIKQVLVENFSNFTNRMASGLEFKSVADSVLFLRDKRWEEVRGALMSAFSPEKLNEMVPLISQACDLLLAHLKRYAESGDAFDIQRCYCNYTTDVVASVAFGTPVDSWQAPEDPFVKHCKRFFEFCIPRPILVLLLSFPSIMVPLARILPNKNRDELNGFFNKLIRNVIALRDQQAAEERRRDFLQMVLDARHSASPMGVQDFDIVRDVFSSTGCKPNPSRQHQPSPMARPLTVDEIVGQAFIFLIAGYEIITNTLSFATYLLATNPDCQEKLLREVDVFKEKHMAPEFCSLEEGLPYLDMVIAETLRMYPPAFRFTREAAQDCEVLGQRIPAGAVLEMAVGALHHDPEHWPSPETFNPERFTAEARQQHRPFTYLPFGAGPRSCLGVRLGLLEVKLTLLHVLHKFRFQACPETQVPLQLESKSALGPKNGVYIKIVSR
Particulars: statement on the known compound; cited from earlier work.

In assay [2] the target is T2, TxA₂ Synthase (Rattus norvegicus, UniProt P49430).
T2 construct: Blood was withdrawn from the abdominal aorta of the animals under light ether anesthesia; from tissue; host or cells: rat whole blood (clotting; platelets)
T2 sequence (P49430 1-533): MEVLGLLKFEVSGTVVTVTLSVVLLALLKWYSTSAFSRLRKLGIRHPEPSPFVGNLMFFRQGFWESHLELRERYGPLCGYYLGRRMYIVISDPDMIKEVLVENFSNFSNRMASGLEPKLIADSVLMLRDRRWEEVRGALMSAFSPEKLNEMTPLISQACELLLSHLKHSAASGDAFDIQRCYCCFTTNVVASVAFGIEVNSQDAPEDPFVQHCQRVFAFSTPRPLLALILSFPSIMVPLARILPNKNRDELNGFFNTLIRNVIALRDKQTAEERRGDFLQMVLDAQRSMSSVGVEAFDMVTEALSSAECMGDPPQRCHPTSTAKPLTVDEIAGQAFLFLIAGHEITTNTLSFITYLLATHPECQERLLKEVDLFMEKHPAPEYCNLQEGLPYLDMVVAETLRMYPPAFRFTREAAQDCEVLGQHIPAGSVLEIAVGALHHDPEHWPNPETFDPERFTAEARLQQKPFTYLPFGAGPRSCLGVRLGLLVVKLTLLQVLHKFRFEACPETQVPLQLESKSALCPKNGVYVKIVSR
In words: In vitro effects on TxB₂ production in rat whole blood during clotting (RIA). In kind it is cell-based. Particulars: result in words. The procedure:
The compounds of formula (I) were for example tested for their ability to inhibit TxA₂ Synthase activity (as reflected by TxB₂ generated in whole blood during clotting or in isolated glomeruli) in vitro in the rat.
The in vitro experiments were carried out as follows: The effect of the compounds on TxA₂ synthesis was evaluated in serum.
Blood was withdrawn from the abdominal aorta of the animals under light ether anesthesia.
Samples were then allowed to clot for 1 h at 37°C, centrifuged at 3000 rpm for 10 min, serum collected and stored at -20°C until assayed. TxB₂ levels were determined by RIA according to previously described procedures [Patrono et al. - Thromb.

Turning to `O=C(O)COc1ccc(CCNS(=O)(=O)c2ccccc2)cc1` [BM 13177, Sulotroban], the “TxA₂ synthase inhibitory activity” value in assay [1] was “devoid of TxA₂ synthase inhibitory activity”.

Turning to `O=C(O)CCCCO/N=C(\C1CCCCC1)C(Cc1cnccn1)n1ccnc1` (racemic) [FCE 27751, (±)-(E)-5-[2-pyrazinylmethyl-2-(imidazol-1-yl)-1-cyclohexylethylidene]aminoxypentanoic acid], in assay [2], the “inhibitory activity on TxA₂ synthesis” value is on record as “marked inhibitory activity”.

(Values after patent EP0611765A1, “2-(Imidazol-1-yl)-3-heteroarylpropylidene-aminoxyalkanoic acid derivatives” (PHARMACIA S.p.A., priority 1993, dated 1994).)
